The values that follow come from US6624188B1, “Method of treatment with compounds having retinoid-like activity and reduced skin toxicity and lacking teratogenic effects” (Allergan, Inc., priority 1992, dated 2003).

Where two headings read alike, the source gives them in different places.

The test system of one series is human sebocyte cultures. Briefly: human sebocyte culture 3H-thymidine incorporation (DNA synthesis, anti-proliferative effect). The note with it: human sebocytes, 8 days treatment, FIG. 2. It counts as cell-based. From the text:
The retinoid like activity of the compounds used in accordance with the method of treatment of the present invention and of the novel compounds of the invention can be confirmed by several assay procedures. An assay involving human sebocyte cultures measures the inhibition of ^3H-thymidine into cells, and thus measures inhibition of DNA synthesis and thus an anti-proliferative effect on sebocyte (i.e. a sebostatic effect). This assay is also considered a specific assay for effectiveness of a compound as a potential anti-acne drug. The test is conducted as follows.
Face-lift or forehead reduction skins from cosmetic surgeries were used as sources of human sebaceous gland cells (sebocytes).
Isolated sebocytes were plated in type 1 collagen coated-dishes in DMEM/F12 (1:1) medium supplemented with 8% fetal bovine serum, 2% human serum, 10 ng/ml epidermal growth factor, 1 nM cholera toxin, 1 μM hydrocortisone, and penicillin/streptomycin/amphotericin B. Secondary cultures were prepared by plating Dispase dissociated cells in collagen coated 24-well plates.
Sub-confluent secondary cultures were treated with the test compounds or ethanol vehicle every 2-3 days for 8 days in the above medium from which the total serum concentration was reduced to 2% and hydrocortisone was not included. During the last 6 hours of treatment, the cultures were labeled with 2 μCi/ml ^3H-thymidine. DNA from the cells were extracted by thichoroacetic acid and perchloric acid, and assayed for radioactivity by scintillation counting and for content of DNA by the diphenylamine calorimetric method. The results were expressed as CPM/μg DNA, or as per cent of vehicle control which incorporated about 1,000-1,500 cpm/μg DNA.
In general terms: Dividing cells build labelled thymidine or BrdU into new DNA.

Series [1] deals with tissue transglutaminase (tTGASE) in HL-60 cells. Briefly: Tissue Transglutaminase Assay (tTGASE) in HL-60 Cells. The format is cell-based. To be noted: FIGS. 6-9. As for the experimental part:
Other assays in which the retinoid like activity of the compounds used in accordance with the invention are confirmed are the HL-60 transglutaminase induction and HL-60 differentiation assay, the procedures of which are described as follows.
HL-60 cells were grown as a suspension culture in T-162 cm^2 flasks in serum-free RPMI 1640 medium supplemented with insulin (5 μg/ml), transferrin (5 μg/ml), and selenium (3 nM). The cells (1×10^6 cells/well, in 6-well dishes) were treated with serial dilutions of test compounds in the above RPMI 1640 medium which was additionally supplemented with […] dibutyryl cyclic adenosine monophosphate, a component found to be necessary for efficient differentiation of the cells. Ethanol was used in the vehicle control cultures. After 1 days of incubation at 37° C. in a 7.5% CO2 incubator, the cells were collected in a set of tubes and pelleted by centrifugation. The cells were lyzed in a buffer containing 20 mM Tris-HCl, pH 7.5, 1 mM EDTA, and 0.5% Triton X-100. An aliquot of the cell lysate was assayed for tTGASE activity in a reaction mixture containing 20 mM Tris-HCl, pH 7.5, 5 mM CaCl2, 2 mg/ml dimethylcasein, 15 mM B-mercaptoethanol and 50 μCi/ml [2,3-^3H] putrescine dihydrochloride. The reaction was carried out for 60 minutes in a 37° C. shaking water bath. The reaction was stopped by an addition of 10% trichloroacetic acid containing 0.1% putrescein. An aliquot of the stopped reaction mixture was spotted on Whatman 3 MM filter discs. The filter discs, along with the control blank filter discs, were washed twice with 5% trichloroacetic acid containing 0.1% putrescein and twice with methanol. After drying under a heat lamp, the radioactivity in the filter discs was determined by scintillation counting. An aliquot of the cell lysates was also assayed for […] by the Bradford method (Bio-Rad). After subtracting the radioactivity from the control blank filter discs, the data were calculated and expressed as pmol/min/mg protein.
As is well understood in the art, induction of tranglutaminase activity in the just-described assay is an early marker of retinoid like activity.

The next series relates to female hairless mice. The format is in vivo. The note with it: for Death/Total: animals died from a group of 5; for % Weight Change: end of 14 day test or at death; for Flaking/scaling grade: scale 0 to +5. As for the experimental part:
Specifically, tests to determine skin toxicity were performed on certain examplary compounds in accordance with the present invention, and on certain analogous compounds which lack the R3 substituent in accordance with Formula 1, 2 or 3. A “Two Week Acute Skin Toxicity Study of Multiple Topical Applications in Female Hairless Mice” is conducted as follows: a daily dose (expressed in nanomoles) of the “test compound” is applied to the skin on the back of hairless mice (usually a test group of 5 mice for a given compound). The daily dose of the test compound is applied for 5 consecutive days, followed by two days when the test compound is not administered, and is thereafter administered again for 4 more consecutive days. On the 14th day the test animals if still alive, are sacrificed to perform certain studies and tests. In the meanwhile certain tests and observations are made on a daily basis with respect to body weight and skin condition. Skin condition is graded as “flaking/scaling” and “abrasion” on a scale of 0 to +5 where the various numbers correspond to the following observations.
Results of these tests are summarized in Table 3, where daily dose is expressed in nanomoles, weight loss of the test animals is in percentages at the end of the 14 day test period, or at the time the test animal expired, and mortality is expressed with the number of animals which died from a group of 5.

The next series concerns gestating ICR mice. Briefly: in vivo teratology study, single oral dose on day 11 of gestation. Also noted: species or system mouse. To be noted: for # Litters Normal / Teratogenic Effects % Cleft Palate / Teratogenic Effects % Limb Defects / Teratogenic Effects % Resorbed: day 11 of gestation, ICR mice. As for the experimental part:
The methodology of the study is described as follows:
ICR mice (Ace Animals, Boyertown, Pa.) were used. Mature male and virgin female ICR mice were housed in environmentally controlled rooms and acclimatized to a 12 hour light/dark cycle (light cycle 6 A.M. to 6 P.M.) for 2 weeks prior to use. All animals were maintained on Purina Lab Chow and tap water ad libitum. A group of 3-4 females was caged with a single male of proven fertility for 4 hours. Presence of a vaginal plug immediately afterward was regarded as evidence of successful mating, and this day was designated as day 0 of gestation.
[…] All animals were killed by cervical dislocation under mild ether anesthesia on day 17 of gestation. Upon laparotomy, the fetuses were examined for external malformations and weighed; one-half of each litter was then fixed in 95% ethanol and processed for staining of the skeleton by the rapid, alizarin red-S dye method. These preparations were examined under a dissection microscope to screen for abnormalities in the axial and the appendicular skeleton. The other half of each litter was fixed in Bouin's solution and examined by freehand razor serial sectioning to screen for anomalies of the brain, face, and palate.
Differences in dose-related incidence of malformations and resorptions were assessed by computing percentages of affected conceptuses among total implantation sites. The groups were compared statistically by a method based on Student's t-tests of arcs in square root transformed percentages. Values at 0.05 probability level were considered significant. The median effective dose was calculated by logarithmic curve fitting of the dose-response data.

Where [2] appears, read: daily dose 75 nanomoles topical.
[3] abbreviates: daily dose 124 nanomoles topical.
Where [4] appears, read: daily dose 1240 nanomoles topical.

With `C/C(=C\c1ccc(C(=O)O)s1)c1cc2c(cc1C)C(C)(C)CCC2(C)C` [AGN 191659, 5-[(E)-2-(5,6,7,8-Tetrahydro-3,5,5,8-pentamethylnaphthalen-2-yl)propen-1-yl]-2-thiophenecarboxylic Acid], in the series with human sebocyte cultures, the “inhibition of 3H-thymidine incorporation (effectiveness in sebocyte assay)” value is reported as “effective”. In series [1], the “induction of transglutaminase activity” value was “active”.
With `C/C(=C\c1ccc(C(=O)O)cc1)c1cc2c(cc1Cl)C(C)(C)CCC2(C)C` [AGN 191642, 4[(E)-2-(3-Chloro-5,6,7,8-tetrahydro-5,5,8,8-tetramethylnaphthalen-2-yl)propen-1-yl]benzoic Acid], in series [1], the “induction of transglutaminase activity” value is “active”.
Take `CCOC(=O)c1ccc(/C=C(\C)c2cc3c(cc2C)OC(C)(C)CC3(C)C)cc1` [AGN191549, Ethyl 4-[(E)-2-(2,2,4,4,7-Pentamethyl-chroman-6-yl)propen-1-yl]-benzoate]: the Death/Total with female hairless mice (daily dose 300 nanomoles topical) is 0/5.
Regarding `CCOC(=O)c1ccc(/C=C(\C)c2cc(C(C)(C)C)ccc2C)cc1` [AGN191544, Ethyl 4-[(E)-2-(2-Methyl-5-tert-butylphenyl)propen-1-yl]benzoate], the Death/Total in the series with female hairless mice (daily dose 800 nanomoles topical) is 0/5.
Turning to `C/C(=C\c1ccc(C(=O)O)cc1)c1cc2c(cc1C)C(C)(C)CCC2(C)C` [AGN 191440], in the series with female hairless mice (setting [2]), the Death/Total is recorded as 0/5, the “% Weight Change” value was found to be 3.1% and the Flaking/scaling grade result was “+2 (Slight (˜25% or less))”. Also, in the series on female hairless mice (setting [3]), the Death/Total is 0/5, the “% Weight Change” value is recorded as −2.7% and the Flaking/scaling grade result is given as “+2 (Slight (˜25% or less))”. Further, in the series with female hairless mice (setting [4]), the Death/Total was 3/5; the “% Weight Change” value was −19.5%; the Flaking/scaling grade result is “+4 (Moderate (greater than ˜50%, less than ˜75%))”. Besides, in series [1], the “induction of transglutaminase activity” value is on record as “active”. The “times less teratogenic than AGN 191183” value in the series on gestating ICR mice (comparison of doses producing teratogenic effects in ICR mice) is “approximately 100 times”. Besides, in the series with gestating ICR mice (single oral dose 1 mg/kg), the “# Litters Normal” value came out at 5, the “Teratogenic Effects % Cleft Palate” value stood at 13%, the “Teratogenic Effects % Limb Defects” value is on record as 17% and the “Teratogenic Effects % Resorbed” value is on record as 19%. Also, in the series on gestating ICR mice (single oral dose 10 mg/kg), the “# Litters Normal” value was 1, the “Teratogenic Effects % Cleft Palate” value is listed as 88%, the “Teratogenic Effects % Limb Defects” value was determined as 75% and the “Teratogenic Effects % Resorbed” value is 2%. In the series on gestating ICR mice (single oral dose 100 mg/kg), the “# Litters Normal” value is on record as 0 and the “Teratogenic Effects % Resorbed” value stood at 100%.
In the case of `CCOC(=O)c1ccc(/C=C(\C)c2cc3c(cc2C)C(C)(C)CCC3(C)C)cc1` [AGN191422, Ethyl 4-[(E)-2-(5,6,7,8-Tetrahydro-3,5,5,8,8-pentamethylnaphthalen-2-yl)propen-1-yl]benzoate], the Death/Total in the series on female hairless mice (daily dose 60 nanomoles topical) and in the series on female hairless mice (daily dose 64 nanomoles topical) was 0/5 in each case.
